≈ marks a conversion by molar mass, not a printed value. Where two headings read alike, the source gives them in different places.
Columns and labels:
MRSA = test: MIC by broth microdilution, MRSA isolates; type: cell-based; conditions: for MIC: Staphylococcus aureus, MRSA
E coli wild type = test: MIC by broth microdilution, wild type E coli; type: cell-based; conditions: for MIC pH430 WT: E. coli strain pH430, WT; for MIC: Escherichia coli
P aeruginosa = test: MIC by broth microdilution, P aeruginosa isolates; type: cell-based, Pseudomonas aeruginosa; conditions: for MIC: Pseudomonas aeruginosa
[1] = test system: E coli carrying specific resistance determinants; test: MIC by broth microdilution, E coli carrying specific resistance determinants; type: cell-based; conditions: for MIC AG036 ANT(4′,4′′): E. coli strain AG036, ANT(4′,4′′); for MIC AG037 APH(3′)-III: E. coli strain AG037, APH(3′)-III; for MIC pH421 APH(3)-I: E. coli strain pH421, APH(3)-I; for MIC pH422 APH(3′)-II: E. coli strain pH422, APH(3′)-II; for MIC pH423 APH(3′)-VI: E. coli strain pH423, APH(3′)-VI; for MIC AG003 E. coli AAC(3)-II: clinical isolate AG003, AAC(3)-II; for MIC: Escherichia coli, read-out: MIC AG003 E. coli AAC(3)-II
[2] = test system: wild type bacterial ribosomes; test: in-vitro translation assay, bacterial ribosomes; type: biochemical; conditions: Mycobacterium smegmatis ribosomes; read-out: IC50 Bacterial
Text: (§1) The antiribosomal activity of these compounds was investigated with cell-free translation assays using both wild type bacterial ribosomes and hybrid ribosomes carrying eukaryotic decoding A sites enabling the prediction of selectivity.

[3] = test system: A1555G mutant mitochondrial ribosome (human chimeric); test: in-vitro translation assay, human chimeric ribosomes, A1555G mutant mitochondrial decoding site; type: biochemical; conditions: human mitochondrial decoding site with A1555G point mutation; read-out: IC50 Mitoch. A1555G
Text: as §1

[4] = test system: cytosolic ribosome (human chimeric); type: biochemical; conditions: ribosomes with a human cytosolic decoding site; read-out: IC50 Cytosolic
Text: as §1

[5] = test system: mitochondrial ribosome (human chimeric); type: biochemical; conditions: ribosomes with a human mitochondrial decoding site; read-out: IC50 Mitoch.
Text: as §1

[6] = test system: rabbit reticulocyte ribosomes; test: in-vitro translation assay, rabbit reticulocyte ribosomes; type: biochemical; conditions: mammalian cytosolic ribosomes (rabbit)
[7] = clinical isolate AG039, AAC(6′)-I ANT(4′)-I
[8] = clinical isolate AG042, AAC(6′)-I ANT(4′)-I APH(2′)
[9] = clinical isolate AG031, APH(3′)-II
[10] = clinical isolate AG032, APH(3′)-II
[11] = clinical isolate AG038, read-out: MIC AG038 MRSA
[12] = clinical isolate AG039, AAC(6′)-I ANT(4′)-I, read-out: MIC AG039 MRSA AAC(6′)-I ANT(4′)-I
[13] = clinical isolate AG042, AAC(6′)-I ANT(4′)-I APH(2′), read-out: MIC AG042 MRSA AAC(6′)-I ANT(4′)-I APH(2′)
[14] = clinical isolate AG001, WT, read-out: MIC AG001 E. coli WT
[15] = clinical isolate AG055, WT, read-out: MIC AG055 E. coli WT
[16] = clinical isolate AG031, APH(3′)-II, read-out: MIC AG031 P. aer. APH(3′)-II
[17] = clinical isolate AG032, APH(3′)-II, read-out: MIC AG032 P. aer. APH(3′)-II

Structure (SMILES)	MIC AG038 MRSA (MRSA; clinical isolate AG038) [mg/L]	MIC AG039 MRSA AAC(6′)-I ANT(4′)-I (MRSA; [7]) [mg/L]	MIC AG042 MRSA AAC(6′)-I ANT(4′)-I APH(2′) (MRSA; [8]) [mg/L]	MIC AG044 MRSA (MRSA; clinical isolate AG044) [mg/L]	MIC pH430 WT (E coli wild type) [μg/ml]	MIC AG001 E. coli WT (E coli wild type; clinical isolate AG001, WT) [mg/L]	MIC AG055 E. coli WT (E coli wild type; clinical isolate AG055, WT) [mg/L]	MIC AG031 P. aer. APH(3′)-II (P aeruginosa; [9]) [mg/L]	MIC AG032 P. aer. APH(3′)-II (P aeruginosa; [10]) [mg/L]	MIC AG036 ANT(4′,4′′) [1] [mg/L]	MIC AG037 APH(3′)-III [1] [mg/L]	MIC pH421 APH(3)-I [1] [μg/ml]	MIC pH422 APH(3′)-II [1] [μg/ml]	MIC pH423 APH(3′)-VI [1] [μg/ml]	MIC AG003 E. coli AAC(3)-II [1] [mg/L]	IC50 [2] [µM]	IC50 [3] [µM]	IC50 [4] [µM]	IC50 [5] [µM]	IC50 [6] [µM]	also measured
CC(N)C1OC(OC2C(N)CC(N)C(O)C2OC2OC(CO)C(OC3OC(CN)C(O)C(O)C3N)C2O)C(N)C(O)C1O (stereo not drawn) [DC166]	2 (≈ 3.18 µM)	>128	>128	1 (≈ 1.59 µM)	0.5	2 (≈ 3.18 µM)	2 (≈ 3.18 µM)	128 to 256	128 (≈ 204 µM)	16 (≈ 25.5 µM)	>64	>32	>32	>32	2 (≈ 3.18 µM)	0.01	1	26	9	48	MIC AG103 armA ([1]; E. coli strain AG103, armA): 1 mg/L (≈ 1.59 µM); MIC pH414 AAC(6′)-I ([1]; E. coli strain pH414, AAC(6′)-I): 0.5 μg/ml; MIC pH415 AAC(6′)-II ([1]; E. coli strain pH415, AAC(6′)-II): 1-2 μg/ml; MIC pH432 ANT(4′) ([1]; E. coli strain pH432, ANT(4′)): 0.5 μg/ml
NCC1OC(OC2C(CO)OC(OC3C(O)C(N)CC(N)C3OC3OC4C(O)CCCOC4C(O)C3N)C2O)C(N)C(O)C1O (stereo not drawn) [DC196]	2 (≈ 3.05 µM)				4	4 (≈ 6.1 µM)		>32		2 (≈ 3.05 µM)	>128	>128	64	16		0.14	96	88	200	43	
CNC1C(OC2C(N)CC(N)C(O)C2OC2OC(CO)C(O)C2O)OC(CN)C(O)C1O (stereo not drawn) [DC-100]																0.52	224	372	457	90	MIC (MRSA; [11]): 64 to 128 mg/L (≈ 137 to 273 µM); MIC (MRSA; [12]): > 128 mg/L; MIC (MRSA; [13]): > 128 mg/L; MIC (MRSA; clinical isolate AG044, read-out: MIC AG044 MRSA): 128 mg/L (≈ 273 µM); MIC (E coli wild type; [14]): 64 to 128 mg/L (≈ 137 to 273 µM); MIC (E coli wild type; [15]): 64 to 128 mg/L (≈ 137 to 273 µM); MIC (P aeruginosa; [16]): > 128 mg/L; MIC (P aeruginosa; [17]): > 128 mg/L; MIC [1]: 64 mg/L (≈ 137 µM)
NC[C@@H]1O[C@H](O[C@H]2[C@@H](O)[C@H](O[C@@H]3[C@@H](O)[C@H](N)C[C@H](N)[C@H]3O[C@H]3O[C@H](CN)[C@@H](O)[C@H](O)[C@H]3O)O[C@@H]2CO)[C@H](N)[C@@H](O)[C@@H]1O [DC-119]	2 (≈ 3.25 µM)	>128	>128	2 (≈ 3.25 µM)		2 to 4	2 to 4	128 (≈ 208 µM)	128 (≈ 208 µM)						2 to 4	0.03	2.7	108	36	88	
CCNC1C(OC2C(N)CC(N)C(O)C2OC2OC(CO)C(OC3OC(CN)C(O)C(O)C3N)C2O)OC(CN)C(O)C1O (stereo not drawn) [DC-172]	0.5 (≈ 0.778 µM)	>32	>32	1 (≈ 1.56 µM)		1 to 2	1 (≈ 1.56 µM)	>64	>64						1 (≈ 1.56 µM)	0.01	1.6	43	11	45	
NCC1OC(OC2C(CO)OC(OC3C(O)C(N)CC(N)C3OC3OC(CN)C(O)C(O)C3NC=O)C2O)C(N)C(O)C1O (stereo not drawn) [DC-182]																0.12	13	127	54	110	MIC (MRSA; [11]): 2 to 4 mg/L (≈ 3.11 to 6.22 µM); MIC (MRSA; [12]): > 32 mg/L; MIC (MRSA; [13]): > 32 mg/L; MIC (E coli wild type; [14]): 4 to 8 mg/L (≈ 6.22 to 12.4 µM); MIC (E coli wild type; [15]): 2 mg/L (≈ 3.11 µM); MIC (P aeruginosa; [16]): > 32 mg/L; MIC (P aeruginosa; [17]): > 32 mg/L; MIC [1]: 4 to 8 mg/L (≈ 6.22 to 12.4 µM)

From patent US11466044B2 (WAYNE STATE UNIVERSITY, priority 2017, dated 2022)
